Data reported in patent US7652037B2, “Methods of lowering lipid levels in a mammal” (City Of Hope, priority 2003, dated 2010).

Columns and labels:
[1] = Inhibition of copper-catalyzed oxidation of ascorbic acid (Cu2+ chelating activity); settings: 500 nmol/L CuCl2, 500 μmol/L ascorbic acid, phosphate buffer pH 7.4, 60 minutes; read-out: IC50, concentration that inhibited the rate of AA oxidation by 50%
Procedure: In vitro measurement of the kinetics of inhibition of copper-catalyzed oxidation of ascorbic acid was performed according to the methods of Price et al., J. Biol. Chem. 276:48967-48972, 2001. Briefly, CuCl2 and various concentrations of inhibitor compounds were pre-incubated in chelex-treated 20 mmol/L phosphate buffer, pH 7.4, for 5 minutes. Ascorbic acid then was added (50 μL of 10 mmol/L in water) to initiate the reaction (1 mL total reaction volume). The final concentrations of CuCl2 and ascorbic acid in the reaction were 500 nmol/L and 500 μmol/L, respectively. Aliquots (135 μL) were removed at 0 and 60 minutes and transferred to autoinjector vials containing 15 μL of 10 mmol/l DTPA. Samples were analyzed by reversed phase HPLC on an XTerra™ RP18 column (250 mm×4.6 mm, 5 μm) with an XTerra™ RP18 5 μm guard column using a Waters® 2690 Separator Module equipped with auto-injector and Millenium® 32 software. Solvents and gradient were all used as described in Dillon et al., Life Sci. 72:1583-1594, 2003. The absorbance of ascorbic acid was measured at 244 nm and the peak area was obtained to estimate the percent of ascorbic acid remaining versus time. For each inhibitor compound, the concentration that inhibited the rate of AA oxidation by 50% (IC50), was calculated with respect to the control using Prism™ software.

[2] = Superoxide production, methylglyoxal with N-α-acetyl-lysine, WST-1 assay
Procedure: The superoxide radical scavenging activity of the compounds was evaluated using the WST-1 method described in Ukeda et al., Anal. Sci. 18:1151-1154, 2002. Briefly, methylglyoxal, was incubated with or without N-α-acetyl-lysine in 0.05 M chelex-treated sodium phosphate buffer, pH 7.4, in the presence of various concentrations of the inhibitor compounds. The production of superoxide was monitored spectrophotometrically at 438 nm, and compared with superoxide dismutase and Tiron, two known superoxide radical scavengers.

[3] = tested on: diabetic and hyperlipidemic rats; settings: diabetic and hyperlipidemic rats (Degenhardt et al.; Alderson et al.); cited from earlier work
[4] = tested on: rats with diabetic nephropathy; settings: rats with diabetic nephropathy (Forbes et al.); cited from earlier work
Human LDL [5] = experiment: Cu++-mediated LDL oxidation, TBARS (Example 16); settings: 250 μM compound, followed for 5 hours; control lag phase about 2 hours
Procedure: Human LDL was isolated from plasma of healthy donors by single vertical spin centrifugation (see Chung et al., Methods Enzymol. 128:181-209, 1986) and used within 24-48 hours of preparation. LDL (50 μg/mL) was incubated at 37° C. in 50 mM chelex-treated phosphate buffer, pH 7.4, alone or in the presence of 5 μM CuCl2 or 5 μM CuCl2 plus various concentrations of the LR compounds. After 5 hours of incubation, aliquots from each reaction mixture were removed for measurement of thiobarbituric acid-reacting substances (TBARS) as described in Satoh, Clin. Chim. Acta 90:37-43, 1978. Briefly, 250 μL of 20% trichloroacetic acid was added to 500 μL of sample aliquot, followed by 750 μL of 1% […]. The samples then were vortexed and incubated in a boiling water bath for 10 minutes. Upon cooling, the samples were centrifuged for 5 minutes at 5000 rpm. Absorbance of the supernatant was taken at 532 nm, and expressed as MDA equivalents using 1,1,3,3-tetramethoxypropane as standards. For fatty acid oxidation studies, linoleic acid (5#mM) was incubated alone or in the presence of 1 mM LR compound in […] phosphate buffer, pH 7.4, for 7 days at 37° C. Aliquots from each reaction mixture were withdrawn periodically for measurement of TBARS as described above.
Results are shown in FIG. 23A, where values are provided as means±SD of two independent experiments (n=4 for each treatment). In separate experiments, the time course for the oxidative modification fo LDL by Cu^++ in the presence of 250 μM compound was followed for 5 hours and aliquots for each time interval were assayed for TBARS. Values in FIG. 23B are means±SD of two independent experiments (n=4 per treatment).

Human LDL [6] = experiment: Cu++-mediated oxidation of LDL, TBARS (Example 9); settings: 5 μM CuCl2, 10-250 μM compound, 5 hours, 37° C.
Procedure: The ability of the LR compounds to inhibit lipid peroxidation was tested using Cu^++-mediated lipid oxidation, a common in vitro model for studies on lipoxidative modifications of proteins. The effects of the LR compounds on lipid peroxidation were studied using Cu^++-mediated oxidation of LDL. Human LDL (50 μg of protein/mL) was incubated at 37° C. in chelex-treated PBS buffer alone or in the presence of 5 μM CuCl2 or 5 μM CuCl2 plus various concentrations of the inhibitor compounds (10-250 μM). After 5 hours of incubation, the amount of thiobarbituric acid reactive substances (expressed as malondialdehyde (MDA) equivalents) generated in the reaction mixture was calculated according to methods described by Dillon et al., Life Sci. #72:1583-1594, 2003. Briefly, aliquots from each sample were precipitated with 20% trichloroacetic acid, centrifuged and an equal volume of 1% thiobarbituric acid was added to the supernatant. The samples then were heated to 95° C. for 10 minutes, and upon cooling, the absorbance was read at 532 nm. Hydrolyzed tetraethoxypropane was used as a standard for the MDA equivalent calculation.

Compound | IC50 [1] | effect on superoxide production [2] | lipid-lowering effects [3] | increase in CML-AGE and nitrotyrosine staining [4] | time course of Cu++-mediated oxidation of LDL (Human LDL [5]) | inhibition of Cu++-mediated LDL oxidation (lipid peroxidation) (Human LDL [6]) | inhibition of Cu++-mediated LDL oxidation (lipid peroxidation) (Human LDL [6]; listed as pyridoxamine)
N=C(N)NN [AG, aminoguanidine, reference compound] | 2750 µM | little or no effect | lipid-lowering effects | attenuated |  |  | 
CCOC(=O)[C@H](CCc1ccccc1)N[C@@H](C)C(=O)N1[C@H](C(=O)O)C[C@@H]2CCC[C@@H]21 [ramipril] |  |  |  | attenuated |  |  | 
Cc1ncc(CO)c(CN)c1O [PM, pyridoxamine, reference compound] |  |  | lipid-lowering effects |  | no effect | no effect | minimal effects
